US20220023231A1, “METHOD OF TREATING POSTPRANDIAL INFLAMMATION AND PREVENTING WEIGHT GAIN” (DASMAN DIABETES INSTITUTE, priority 2020, published 2022)

Experiments:
THP-1 cells [1] = test: Flow cytometry (FACS) assessment of lipid accumulation in TNF-α stimulated THP-1 derived macrophages; type: cell-based, Human; settings: in response to the presence of TNF-α
Description: (§1) Cell culture: Human monocytic leukemia cell line (THP-1) cells were purchased from American Type Culture Collection (ATCC). Cell cultures were maintained in RPMI-1640 culture medium (Gibco, Life Technologies, Grand Island, USA) supplemented with 10% fetal bovine serum (Gibco, Life Technologies, Grand Island, N.Y., USA), 2 mM glutamine (Gibco, Invitrogen, Grand Island, N.Y., USA), 1 mM sodium pyruvate, 10 mM HEPES, 100 ug/m1 Normocin 50 U/ml penicillin and 50 μg/m1 streptomycin (P/S; Gibco, Invitrogen, Grand Island, N.Y., USA) and incubated at 37° C. (with humidity) in 5% CO2.
(§2) Cell stimulation: Prior to stimulation, THP-1 cells were plated in 24-well plates (Costar, Corning Incorporated, Corning, N.Y., USA) at 5×10^5 cells/well cell density unless indicated otherwise. […]

THP-1 cells [2] = test: Oil Red O staining of lipid accumulation in TNF-α stimulated THP-1 derived macrophages; type: cell-based, Human; settings: in response to TNF-α (10 ng/ml)
Description: as §1, §2
Oil Red O staining: To determine the degree of lipid accumulation, the accumulation of cytoplasmic triglycerides in cells were measured by staining with Oil Red O (SigmaAldrich, St Louis, Mo., USA). […]

THP-1 cells [3] = test: IL-1β ELISA and TNF-α / CD11b mRNA expression in macrophage cells after TNF-α; type: cell-based, Human; settings: in response to TNF-α treatment
Description: as §1, §2

human macrophages = test: Inflammatory and infiltration marker gene expression in human macrophages exposed to palmitic acid; type: cell-based; settings: 30 minutes pre-treatment before addition of palmitic acid
macrophage = test: Fatty acid uptake related gene expression and intracellular fat in macrophages/monocytes exposed to palmitic acid; type: cell-based
[4] = system: pro-inflammatory monocytes (CD45+/Ly6C/CD11b+ cells); test: Acute high fat food feeding in mice, pro-inflammatory monocytes in blood by flow cytometry; type: in vivo, mouse
Description: Further experiments were developed to test the utility of Triacsin C as an anti-inflammatory and/or weight gain prevention drug in a mouse model. Base line blood samples were taken from each mouse before feeding. Mice were then administered either Triacsin C (10 mg/m1) or a vehicle (control) in a drinkable form 30 minutes prior to introducing them to high fat food. Four hours after food consumption another blood sample was collected from each mouse and the inflammatory response was measured using flow cytometry to look for pro-inflammatory monocytes (CD45^+/Ly6C/CD11b^+ cells). (See FIGS. 7(A)-7(B)) The experiment was repeated 5 times on non-consecutive days and also confirmed that the dose was safe.
(§3) A further experiment was designed to test whether constant daily doses of Triacsin C could prevent weight gain (or the development of obesity and other weight gain related diseases). […] Mice were placed on a constant high fat diet (HFD) for up to 5 weeks in the presence of a daily (drinkable) dose of either Triacsin C or the vehicle control (FIG. 9(A)).

[5] = Constant high fat diet (HFD) in mice with daily drinkable dose; type: in vivo, mouse
Source text: as §3

[6] = daily dose, HFD, versus vehicle control
[7] = low daily drinkable dose, HFD up to 5 weeks

Compound	lipid accumulation (FACS, cell size and granulation) (THP-1 cells [1])	lipid accumulation (Oil Red O staining) (THP-1 cells [2])	inflammatory markers (IL-1B protein, TNF-α mRNA, CD11b mRNA) (THP-1 cells [3])	infiltration markers (CD11b, CCR2, CD80) (human macrophages)	upregulation of monocytic inflammatory markers (IL-1b, CD11c, HLA-DR) (human macrophages)	amount of intracellular fat found within monocytes (macrophage; data not shown)	expression of fatty acid uptake-related genes (macrophage; pre-treatment, response to palmitic acid (FIG. 5))	safety of the dose ([4]; 10 mg/m1 drinkable, repeated 5 times on non-consecutive days)	inflammatory response in monocytes (CD45+, Ly6C+, CD11b+ cells) ([4]; drinkable, 30 minutes prior to high fat food, blood four hours after food)	reduction of inflammatory upregulation ([4]; lower dose, four-hour acute high fat diet feeding)	pro-inflammatory monocytes ([4]; lower dose, four-hour acute high fat diet feeding, control 34.2%)	adipose tissue (fat) of livers [5, 6]	liver size [5, 6]	increase in inflammatory monocytes from long term HFD [5, 7]	weight gain resulting from HFD [5, 7]
CCOC(=O)[C@@]1(CCCCCCOc2ccc(Cl)cc2)CO1 [Etomoxir]	increased lipid accumulation														
CCC/C=C/C/C=C/C=C/C=NNN=O [Triacsin C, N-(((2E,4E,7E)-undeca-2,4,7-trienylidene)amino)nitrous amide]	no significant change in apparent lipid accumulation	prevents lipid accumulation	little to no change in inflammatory markers	reduce infiltration markers	reduce the upregulation of monocytic inflammatory markers	reduced the amount of intracellular fat found within monocytes	inhibited expression of fatty acid uptake-related genes	safe	inhibit the inflammatory response in monocytes	10%	25.4%	significantly less adipose tissue	smaller	prevented the increase in inflammatory monocytes	dramatically prevented
